Test results reported in ChEMBL document CHEMBL4834472 (J Med Chem, 2021).
Active and inactive are the calls of the source. No cut-off for these calls is given here.

Experiments:
CDK2/Cyclin A1 = CDK2/Cyclin A1 (Homo sapiens, UniProt P24941); assay type: protein-complex assay
Description: Inhibition of CDK2/Cyclin A1 (unknown origin) at 1 uM using histone H1 as substrate preincubated for 20 mins followed by 33P-ATP addition and measured after 2 hrs by filter binding method

[1] = biological target: Dual specificity protein kinase CLK1 (Homo sapiens) (UniProt P49759); assay: Inhibition of CLK1 (unknown origin) assessed as residual activity at 500 nM
[2] = biological target: Lymphokine-activated killer T-cell-originated protein kinase (Homo sapiens) (UniProt Q96KB5); assay: Inhibition of TOPK (unknown origin) assessed as residual activity at 500 nM
[3] = biological target: cGMP-dependent protein kinase 1 (Homo sapiens) (UniProt Q13976); assay: Inhibition of PKG1alpha (unknown origin) assessed as residual activity at 500 nM
K562 = assay: cells; settings: Homo sapiens, K562, 72 h
Description: Antiproliferative activity against human K562 cells assessed as cell death measured after 72 hrs by resazurin dye based assay

MV4-11 [4] = assay: cells; settings: Homo sapiens, MV4-11, 72 h
Description: Antiproliferative activity against human MV4-11 cells assessed as cell death measured after 72 hrs by resazurin dye based assay

[5] = biological target: Ribosomal protein S6 kinase alpha-4 (Homo sapiens) (UniProt O75676); assay: Inhibition of MSK2 (unknown origin) assessed as residual activity at 500 nM
Chain of Ribosomal protein S6 kinase alpha-4 (Homo sapiens) (O75676 whole entry, looked up): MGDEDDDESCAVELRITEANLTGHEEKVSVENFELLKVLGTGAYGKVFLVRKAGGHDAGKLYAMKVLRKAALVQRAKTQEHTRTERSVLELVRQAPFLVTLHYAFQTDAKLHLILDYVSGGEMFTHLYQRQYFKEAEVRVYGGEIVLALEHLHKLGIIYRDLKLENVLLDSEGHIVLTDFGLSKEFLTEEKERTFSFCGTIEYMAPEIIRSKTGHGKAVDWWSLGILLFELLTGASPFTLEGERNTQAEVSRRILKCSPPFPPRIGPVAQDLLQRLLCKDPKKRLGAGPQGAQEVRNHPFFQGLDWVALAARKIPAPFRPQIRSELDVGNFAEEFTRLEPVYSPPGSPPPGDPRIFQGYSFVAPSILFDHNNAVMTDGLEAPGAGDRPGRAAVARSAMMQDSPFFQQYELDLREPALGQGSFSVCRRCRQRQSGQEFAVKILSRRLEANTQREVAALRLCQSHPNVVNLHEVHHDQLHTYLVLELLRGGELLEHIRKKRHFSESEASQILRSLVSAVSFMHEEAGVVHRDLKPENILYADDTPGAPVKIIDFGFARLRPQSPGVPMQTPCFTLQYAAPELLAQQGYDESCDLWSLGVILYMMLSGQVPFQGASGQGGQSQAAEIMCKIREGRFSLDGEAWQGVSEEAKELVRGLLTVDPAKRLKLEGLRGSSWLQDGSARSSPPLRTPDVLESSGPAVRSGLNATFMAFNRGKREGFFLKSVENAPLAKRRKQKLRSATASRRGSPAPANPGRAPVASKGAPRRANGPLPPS

[6] = biological target: Rho-associated protein kinase 2 (Homo sapiens) (UniProt O75116); assay: Inhibition of ROCK2 (unknown origin) assessed as residual activity at 500 nM
[7] = biological target: Ribosomal protein S6 kinase beta-1 (Homo sapiens) (UniProt P23443); assay: Inhibition of p70S6K (unknown origin) assessed as residual activity at 500 nM
Chain of Ribosomal protein S6 kinase beta-1 (Homo sapiens) (P23443 whole entry, looked up): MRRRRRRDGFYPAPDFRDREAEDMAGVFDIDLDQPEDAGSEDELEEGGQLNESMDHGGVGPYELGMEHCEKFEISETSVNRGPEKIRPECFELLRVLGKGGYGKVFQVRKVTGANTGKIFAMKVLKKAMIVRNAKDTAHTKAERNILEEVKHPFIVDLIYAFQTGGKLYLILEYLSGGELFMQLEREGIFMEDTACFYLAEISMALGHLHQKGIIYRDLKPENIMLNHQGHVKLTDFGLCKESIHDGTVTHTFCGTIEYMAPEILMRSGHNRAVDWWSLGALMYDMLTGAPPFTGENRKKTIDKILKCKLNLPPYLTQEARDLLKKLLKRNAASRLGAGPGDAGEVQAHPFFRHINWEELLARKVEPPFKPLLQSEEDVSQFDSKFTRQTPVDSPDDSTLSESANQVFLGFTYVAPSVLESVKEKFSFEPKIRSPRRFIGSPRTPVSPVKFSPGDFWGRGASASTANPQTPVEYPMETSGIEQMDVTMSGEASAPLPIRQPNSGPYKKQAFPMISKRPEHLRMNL

[8] = biological target: NT-3 growth factor receptor (Homo sapiens) (UniProt Q16288); assay: Inhibition of TRKC (unknown origin) assessed as residual activity at 500 nM
Chain of NT-3 growth factor receptor (Homo sapiens) (Q16288 32-839 limits assumed): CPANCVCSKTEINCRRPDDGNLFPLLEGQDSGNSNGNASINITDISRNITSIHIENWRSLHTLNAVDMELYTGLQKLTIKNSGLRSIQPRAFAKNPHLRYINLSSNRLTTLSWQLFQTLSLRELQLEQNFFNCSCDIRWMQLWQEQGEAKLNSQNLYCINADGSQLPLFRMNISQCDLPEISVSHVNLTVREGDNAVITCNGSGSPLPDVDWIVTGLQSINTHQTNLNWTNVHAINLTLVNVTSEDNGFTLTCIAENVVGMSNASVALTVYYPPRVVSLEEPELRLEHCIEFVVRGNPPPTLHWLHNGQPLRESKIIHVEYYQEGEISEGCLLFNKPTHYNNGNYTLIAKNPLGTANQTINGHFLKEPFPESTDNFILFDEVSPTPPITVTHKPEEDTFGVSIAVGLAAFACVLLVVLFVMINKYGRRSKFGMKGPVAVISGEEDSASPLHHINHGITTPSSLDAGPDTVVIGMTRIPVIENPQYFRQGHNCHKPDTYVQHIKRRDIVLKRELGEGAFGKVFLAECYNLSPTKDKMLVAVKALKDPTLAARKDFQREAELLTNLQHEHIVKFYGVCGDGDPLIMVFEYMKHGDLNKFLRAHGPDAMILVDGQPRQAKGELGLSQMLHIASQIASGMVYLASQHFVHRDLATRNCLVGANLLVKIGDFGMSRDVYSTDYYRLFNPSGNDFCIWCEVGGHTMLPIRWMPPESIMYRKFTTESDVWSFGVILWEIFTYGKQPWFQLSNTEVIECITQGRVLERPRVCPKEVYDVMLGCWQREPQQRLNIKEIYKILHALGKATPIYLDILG

[9] = biological target: CDK2/Cyclin A1 (Homo sapiens) (UniProt P24941+P78396); assay: Inhibition of CDK2/cyclin A1 (unknown origin) assessed as residual activity at 500 nM; assay type: protein-complex assay
[10] = biological target: Maternal embryonic leucine zipper kinase (Homo sapiens) (UniProt Q14680); assay: Inhibition of MELK (unknown origin) assessed as residual activity at 500 nM
[11] = system: Receptor-type tyrosine-protein kinase FLT3 (Homo sapiens), P36888 [D835Y]; assay: Inhibition of FLT3 D835Y (unknown origin) assessed as residual activity at 500 nM
[12] = system: Receptor-type tyrosine-protein kinase FLT3 (Homo sapiens), P36888 [UNDEFINED MUTATION]; assay: Inhibition of FLT3 ITD (unknown origin) assessed as residual activity at 500 nM
[13] = biological target: Leucine-rich repeat serine/threonine-protein kinase 2 (Homo sapiens) (UniProt Q5S007); assay: Inhibition of LRRK2 (unknown origin) assessed as residual activity at 500 nM
[14] = biological target: MAP kinase-interacting serine/threonine-protein kinase 2 (Homo sapiens) (UniProt Q9HBH9); assay: Inhibition of MNK2 (unknown origin) assessed as residual activity at 500 nM
Chain of MAP kinase-interacting serine/threonine-protein kinase 2 (Homo sapiens) (Q9HBH9 whole entry, looked up): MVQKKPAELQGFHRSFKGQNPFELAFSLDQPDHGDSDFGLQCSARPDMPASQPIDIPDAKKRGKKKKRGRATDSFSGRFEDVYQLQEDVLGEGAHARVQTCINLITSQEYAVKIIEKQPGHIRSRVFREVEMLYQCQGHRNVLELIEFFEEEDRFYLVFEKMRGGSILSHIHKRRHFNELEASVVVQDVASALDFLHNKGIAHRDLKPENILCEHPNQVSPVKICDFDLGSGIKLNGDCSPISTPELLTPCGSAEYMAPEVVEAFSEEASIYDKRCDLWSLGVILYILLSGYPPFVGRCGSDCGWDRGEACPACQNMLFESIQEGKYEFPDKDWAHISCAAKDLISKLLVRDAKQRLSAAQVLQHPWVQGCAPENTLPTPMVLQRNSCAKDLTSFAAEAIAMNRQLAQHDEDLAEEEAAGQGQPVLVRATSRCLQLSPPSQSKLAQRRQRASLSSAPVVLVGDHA

[15] = biological target: Dual specificity tyrosine-phosphorylation-regulated kinase 1B (Homo sapiens) (UniProt Q9Y463); assay: Inhibition of DYRK1B (unknown origin) assessed as residual activity at 500 nM
[16] = biological target: Cyclin-dependent kinase 4/cyclin D1 (Homo sapiens, UniProt P11802); assay: Inhibition of CDK4/cyclin D1 (unknown origin) in presence of [32P]gammaATP by image analyser; assay type: protein-complex assay
Chain of Cyclin-dependent kinase 4/cyclin D1 (P11802 whole entry): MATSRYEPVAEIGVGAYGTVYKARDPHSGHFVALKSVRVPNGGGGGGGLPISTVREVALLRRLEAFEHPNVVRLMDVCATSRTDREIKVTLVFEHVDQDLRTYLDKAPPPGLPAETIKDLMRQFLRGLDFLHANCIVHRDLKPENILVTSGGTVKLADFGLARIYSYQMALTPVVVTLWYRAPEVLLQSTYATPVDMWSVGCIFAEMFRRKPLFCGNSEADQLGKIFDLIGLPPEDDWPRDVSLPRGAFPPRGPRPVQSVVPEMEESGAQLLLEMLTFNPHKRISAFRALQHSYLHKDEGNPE
Chain of Cyclin-dependent kinase 4/cyclin D1 (P24385 whole entry, further chain): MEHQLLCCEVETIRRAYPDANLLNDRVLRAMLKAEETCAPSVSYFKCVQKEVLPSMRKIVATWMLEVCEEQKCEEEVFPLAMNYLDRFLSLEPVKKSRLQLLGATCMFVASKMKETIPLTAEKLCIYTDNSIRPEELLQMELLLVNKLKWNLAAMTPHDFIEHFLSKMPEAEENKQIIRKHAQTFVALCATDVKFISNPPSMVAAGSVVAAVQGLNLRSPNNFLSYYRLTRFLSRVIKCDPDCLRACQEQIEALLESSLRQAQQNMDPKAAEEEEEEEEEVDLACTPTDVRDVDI

MOLM-14 [17] = assay: Antiproliferative activity against human MOLM-14 cells assessed as cell death measured after 72 hrs by resazurin dye based assay; assay type: functional; settings: MOLM-14, 72 h
[18] = biological target: Cyclin-dependent kinase 1/cyclin B1 (Homo sapiens, UniProt P06493); assay: Inhibition of CDK1/cyclin B1 (unknown origin) in presence of [32P]gammaATP by image analyser; assay type: protein-complex assay
Chain of Cyclin-dependent kinase 1/cyclin B1 (P06493 whole entry): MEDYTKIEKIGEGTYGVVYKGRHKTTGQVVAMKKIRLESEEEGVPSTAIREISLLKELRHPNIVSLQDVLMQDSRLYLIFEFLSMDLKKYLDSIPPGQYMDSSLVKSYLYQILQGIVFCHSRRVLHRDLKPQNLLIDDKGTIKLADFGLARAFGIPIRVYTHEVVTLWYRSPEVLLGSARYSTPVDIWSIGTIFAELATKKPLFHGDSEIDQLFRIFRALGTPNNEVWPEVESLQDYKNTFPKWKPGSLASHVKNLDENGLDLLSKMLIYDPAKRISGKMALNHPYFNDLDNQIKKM
Chain of Cyclin-dependent kinase 1/cyclin B1 (P14635 whole entry, further chain): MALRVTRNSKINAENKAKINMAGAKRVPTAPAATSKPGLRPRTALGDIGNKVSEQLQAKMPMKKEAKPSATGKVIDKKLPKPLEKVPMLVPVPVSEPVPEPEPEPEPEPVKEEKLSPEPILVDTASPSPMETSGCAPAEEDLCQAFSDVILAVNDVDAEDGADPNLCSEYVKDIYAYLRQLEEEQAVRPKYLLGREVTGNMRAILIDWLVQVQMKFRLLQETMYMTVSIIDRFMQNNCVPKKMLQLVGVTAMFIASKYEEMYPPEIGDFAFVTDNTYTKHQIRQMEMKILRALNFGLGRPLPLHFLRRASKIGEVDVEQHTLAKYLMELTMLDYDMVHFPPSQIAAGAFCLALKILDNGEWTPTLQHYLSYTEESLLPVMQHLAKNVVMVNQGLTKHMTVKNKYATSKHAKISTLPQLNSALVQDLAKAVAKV

MOLM-14 [19] = assay: Antiproliferative activity against human MOLM-14 cells harboring F691L mutant assessed as cell death measured after 72 hrs by resazurin dye based assay; assay type: functional; settings: MOLM-14, 72 h
SEM cells = assay: Antiproliferative activity against human SEM cells assessed as cell death measured after 72 hrs by resazurin dye based assay; assay type: functional
BaF3 [20] = assay: Antiproliferative activity against mouse BaF3 cells harboring FLt3 ITD mutant assessed as cell death measured after 72 hrs by resazurin dye based assay; assay type: functional; settings: BaF3, 72 h
MOLM-14 [21] = assay: Antiproliferative activity against human MOLM-14 cells harboring D835Y mutant assessed as cell death measured after 72 hrs by resazurin dye based assay; assay type: functional; settings: MOLM-14, 72 h
[22] = biological target: T1, Receptor-type tyrosine-protein kinase FLT3 (Homo sapiens, UniProt P36888); assay: Inhibition of wild type FLT3 (unknown origin) using AGLT peptide substrate in presence of [32P]gammaATP by image analyser
T1 sequence (P36888 whole entry): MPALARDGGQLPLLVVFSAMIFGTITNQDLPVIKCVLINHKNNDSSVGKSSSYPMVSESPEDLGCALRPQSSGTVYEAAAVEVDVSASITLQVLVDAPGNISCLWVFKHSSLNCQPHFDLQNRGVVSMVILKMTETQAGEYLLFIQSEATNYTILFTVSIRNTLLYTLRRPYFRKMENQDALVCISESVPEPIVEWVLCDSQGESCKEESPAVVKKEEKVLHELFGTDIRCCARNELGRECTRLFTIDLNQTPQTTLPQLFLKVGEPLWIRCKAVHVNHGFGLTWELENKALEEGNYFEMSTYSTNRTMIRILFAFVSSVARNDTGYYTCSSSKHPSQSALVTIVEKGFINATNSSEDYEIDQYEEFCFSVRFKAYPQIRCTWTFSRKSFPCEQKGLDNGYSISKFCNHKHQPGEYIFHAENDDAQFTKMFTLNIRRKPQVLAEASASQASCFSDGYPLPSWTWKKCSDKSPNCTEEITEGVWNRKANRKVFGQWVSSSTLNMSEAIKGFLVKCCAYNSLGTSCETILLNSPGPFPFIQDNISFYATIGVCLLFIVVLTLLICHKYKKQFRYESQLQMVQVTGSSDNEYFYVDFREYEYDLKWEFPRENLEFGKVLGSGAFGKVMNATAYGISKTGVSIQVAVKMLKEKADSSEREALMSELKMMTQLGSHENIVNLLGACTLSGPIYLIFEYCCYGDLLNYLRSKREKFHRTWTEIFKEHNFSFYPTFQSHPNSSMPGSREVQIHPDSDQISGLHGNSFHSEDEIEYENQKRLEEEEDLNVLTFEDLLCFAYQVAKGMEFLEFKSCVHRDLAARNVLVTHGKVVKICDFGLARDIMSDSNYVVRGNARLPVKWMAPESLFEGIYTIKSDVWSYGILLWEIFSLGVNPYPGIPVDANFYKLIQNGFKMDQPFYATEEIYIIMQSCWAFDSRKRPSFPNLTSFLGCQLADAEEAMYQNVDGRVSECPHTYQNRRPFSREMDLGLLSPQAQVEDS

BaF3 [23] = assay: Antiproliferative activity against mouse BaF3 cells assessed as cell death measured after 72 hrs by resazurin dye based assay; assay type: functional; settings: BaF3, 72 h
[24] = biological target: Cyclin-dependent kinase 2/cyclin E1 (Homo sapiens, UniProt P24941); assay: Inhibition of CDK2/cyclin E1 (unknown origin) in presence of [32P]gammaATP by image analyser; assay type: protein-complex assay
CCRF-CEM = assay: Antiproliferative activity against human CCRF-CEM cells assessed as cell death measured after 72 hrs by resazurin dye based assay; assay type: functional
THP-1 = assay: Antiproliferative activity against human THP-1 cells assessed as cell death measured after 72 hrs by resazurin dye based assay; assay type: functional; settings: THP-1, 72 h
CDK9/cyclin T1 = CDK9/cyclin T1 (Homo sapiens, UniProt P50750); assay: Inhibition of CDK9/cyclin T1 (unknown origin) in presence of [32P]gammaATP by image analyser; assay type: protein-complex assay
Chain of CDK9/cyclin T1 (O60563 whole entry): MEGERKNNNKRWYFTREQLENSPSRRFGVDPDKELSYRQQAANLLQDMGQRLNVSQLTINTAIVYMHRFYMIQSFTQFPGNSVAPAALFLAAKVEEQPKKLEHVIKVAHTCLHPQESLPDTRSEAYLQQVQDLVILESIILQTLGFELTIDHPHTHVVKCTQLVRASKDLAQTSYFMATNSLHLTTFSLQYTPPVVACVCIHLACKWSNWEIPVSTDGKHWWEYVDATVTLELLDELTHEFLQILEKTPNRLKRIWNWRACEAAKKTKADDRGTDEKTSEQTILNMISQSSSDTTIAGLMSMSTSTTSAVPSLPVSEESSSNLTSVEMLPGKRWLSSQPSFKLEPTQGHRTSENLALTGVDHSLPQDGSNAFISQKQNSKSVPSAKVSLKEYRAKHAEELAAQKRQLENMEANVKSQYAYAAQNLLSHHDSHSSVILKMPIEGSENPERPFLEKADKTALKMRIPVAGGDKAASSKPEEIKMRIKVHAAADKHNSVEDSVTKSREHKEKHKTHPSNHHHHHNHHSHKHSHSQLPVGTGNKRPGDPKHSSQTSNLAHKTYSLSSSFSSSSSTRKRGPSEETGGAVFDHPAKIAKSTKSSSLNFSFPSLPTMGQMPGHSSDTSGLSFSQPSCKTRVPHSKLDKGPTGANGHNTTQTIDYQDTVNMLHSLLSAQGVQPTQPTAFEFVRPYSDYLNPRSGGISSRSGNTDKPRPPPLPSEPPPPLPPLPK
Chain of CDK9/cyclin T1 (P50750 whole entry): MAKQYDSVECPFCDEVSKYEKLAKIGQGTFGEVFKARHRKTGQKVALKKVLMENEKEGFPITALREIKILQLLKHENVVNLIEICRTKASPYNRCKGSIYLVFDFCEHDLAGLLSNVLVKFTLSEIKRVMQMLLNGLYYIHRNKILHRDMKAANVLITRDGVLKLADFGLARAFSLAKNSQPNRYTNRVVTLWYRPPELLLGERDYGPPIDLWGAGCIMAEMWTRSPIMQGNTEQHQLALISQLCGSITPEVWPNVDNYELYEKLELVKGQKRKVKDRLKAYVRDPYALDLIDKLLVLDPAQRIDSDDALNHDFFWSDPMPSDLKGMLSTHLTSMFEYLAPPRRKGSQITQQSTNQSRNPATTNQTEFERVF

CDK2/Cyclin A2 = CDK2/Cyclin A2 (Homo sapiens, UniProt P24941); assay: Inhibition of CDK2/cyclin A2 (unknown origin) in presence of [32P]gammaATP by image analyser; assay type: protein-complex assay
U-937 = assay: Antiproliferative activity against human U-937 cells assessed as cell death measured after 72 hrs by resazurin dye based assay; assay type: functional; settings: U-937, 72 h
MOLM-13 = assay: Antiproliferative activity against human MOLM-13 cells assessed as cell death measured after 72 hrs by resazurin dye based assay; assay type: functional; settings: MOLM-13, 72 h
[25] = biological target: Receptor-type tyrosine-protein kinase FLT3 (Homo sapiens, UniProt P36888, ITD)
MV4-11 [26] = assay: Induction of apoptosis in human MV4-11 cells assessed as caspase 3 activation using fluorescent substrate Ac-DEVD-AMC at 100 nM incubated for 24 hrs by Western blot analysis; assay type: functional, cell-based
MV4-11 [27] = assay: Induction of apoptosis in human MV4-11 cells assessed as effect on Bcl2 level at 100 nM incubated for 24 hrs by Western blot analysis; assay type: functional, cell-based
[28] = biological target: Receptor-type tyrosine-protein kinase FLT3 (Homo sapiens) (UniProt P36888); assay: Inhibition of FLT3 autophosphorylation in human MV4-11 cells at 20 to 100 nM incubated for 1 hrs by Western blot analysis; assay type: cell-based; settings: dose 20-100 nM
MV4-11 [29] = assay: Induction of apoptosis in human MV4-11 cells assessed as caspase 7 activation using fluorescent substrate Ac-DEVD-AMC at 100 nM incubated for 24 hrs by Western blot analysis; assay type: functional, cell-based
[30] = biological target: Receptor-type tyrosine-protein kinase FLT3 (Homo sapiens) (UniProt P36888); assay: Inhibition of FLT3 in human MV4-11 cells assessed as STAT5 phosphorylation at Y694 at 20 to 100 nM incubated for 1 hrs by Western blot analysis; assay type: cell-based; settings: dose 20-100 nM
[31] = biological target: Receptor-type tyrosine-protein kinase FLT3 (Homo sapiens) (UniProt P36888); assay: Inhibition of FLT3 in human MV4-11 cells assessed as ERK1/2 phosphorylation at 20 to 100 nM incubated for 1 hrs by Western blot analysis; assay type: cell-based; settings: dose 20-100 nM
MV4-11 [32] = assay: Induction of apoptosis in human MV4-11 cells assessed as decrease in MCL1 level at 100 nM incubated for 24 hrs by Western blot analysis; assay type: functional, cell-based
MV4-11 [33] = assay: Induction of apoptosis in human MV4-11 cells assessed as increase in cleaved PARP1 level at 100 nM incubated for 24 hrs by Western blot analysis; assay type: functional, cell-based

Row | IC50 (CDK2/Cyclin A1) | IC50 (K562) | IC50 (MV4-11 [4]) | IC50 [16] | IC50 [18] | IC50 [22] | IC50 [24] | IC50 (CDK9/cyclin T1) | IC50 (CDK2/Cyclin A2) | IC50 [25] | SMILES | IC50 (MOLM-14 [17]) | IC50 (MOLM-14 [19]) | IC50 (SEM cells) | IC50 (BaF3 [20]) | IC50 (MOLM-14 [21]) | IC50 (BaF3 [23]) | IC50 (CCRF-CEM) | IC50 (THP-1) | IC50 (U-937) | IC50 (MOLM-13) | other results
1 | 39 nM | 8590 nM | 71 nM | – | – | – | – | – | – | – | FC(F)(F)c1n[nH]cc1-c1nc2ccc3[nH]ncc3c2c2c1CCCC2 | – | – | – | – | – | – | – | – | – | – | Activity [1]: 4%; Activity [2]: < 25%; Activity [3]: < 25%; Activity [5]: < 25%; Activity [6]: < 25%; Activity [7]: < 25%; Activity [8]: 4%; Activity [9]: < 25%; Activity [10]: 4%; Activity [11]: < 2.5%; Activity [12]: < 2.5%; Activity [13]: 4%; Activity [14]: < 25%; Activity [15]: 4%
2 | 39 nM | 3280 nM | 22 nM | > 1000 nM | 119 nM | 21 nM | 55 nM | 196 nM | 39 nM | 43 nM | Fc1cc2[nH]ncc2c2c3c(c(-c4cn[nH]c4)nc12)CCCC3 | 79 nM | 50 nM | 1050 nM | 814 nM | 46 nM | 15100 nM | 5480 nM | 1900 nM | 3170 nM | 49 nM | –
3 | 158 nM | 9200 nM | 20 nM | > 1000 nM | 140 nM | 7 nM | 182 nM | > 1000 nM | 158 nM | 1 nM | Cc1n[nH]c2cc(F)c3nc(-c4c[nH]nc4C(F)(F)F)c4c(c3c12)CCCC4 | 14 nM | 48 nM | 111 nM | 16 nM | 7 nM | 5980 nM | 5730 nM | 2850 nM | 2580 nM | 7 nM | Activity (MV4-11 [26]): Active; Activity (MV4-11 [27]): Active; inhibition [28]: Active; Activity (MV4-11 [29]): Active; inhibition [30]: Active; inhibition [31]: inactive; Activity (MV4-11 [32]): Active; Activity (MV4-11 [33]): Active
